ChEMBL document CHEMBL1201862, “PubChem BioAssay data set” (2004)
Calls of active or inactive are those of the source.

Columns and labels:
[1] = biological target: T1, Long-chain-fatty-acid--AMP ligase FadD28 (Mycobacterium tuberculosis, UniProt P9WQ59); assay: Fluorescence polarization aasay to screen for inhibitors that compete for the binding of FadD28 to a bisubstrate Measured in Biochemical System Using Plate Reader - 2147-01_Inhibitor_Dose_CherryPick_Activity.; type: functional, Mycobacterium tuberculosis H37Rv
T1 sequence (P9WQ59 whole entry): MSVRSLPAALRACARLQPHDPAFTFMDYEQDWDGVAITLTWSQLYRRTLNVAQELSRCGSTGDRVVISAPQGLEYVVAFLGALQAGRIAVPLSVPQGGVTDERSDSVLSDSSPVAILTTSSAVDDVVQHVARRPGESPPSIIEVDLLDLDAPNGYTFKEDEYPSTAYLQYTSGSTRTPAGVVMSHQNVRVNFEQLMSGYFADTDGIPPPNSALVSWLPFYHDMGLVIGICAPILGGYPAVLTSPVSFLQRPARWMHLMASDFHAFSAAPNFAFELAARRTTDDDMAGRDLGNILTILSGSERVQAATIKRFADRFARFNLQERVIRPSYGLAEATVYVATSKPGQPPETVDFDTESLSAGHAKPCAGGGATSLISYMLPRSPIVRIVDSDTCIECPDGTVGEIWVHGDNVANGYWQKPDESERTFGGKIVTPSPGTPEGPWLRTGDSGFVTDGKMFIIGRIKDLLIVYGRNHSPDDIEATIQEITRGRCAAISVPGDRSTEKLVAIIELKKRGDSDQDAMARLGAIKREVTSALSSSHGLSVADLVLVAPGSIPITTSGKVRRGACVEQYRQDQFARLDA

Protein skinhead-1 = biological target: T2, Protein skinhead-1 (Caenorhabditis elegans, UniProt P34707); type: functional
T2 sequence (P34707 whole entry): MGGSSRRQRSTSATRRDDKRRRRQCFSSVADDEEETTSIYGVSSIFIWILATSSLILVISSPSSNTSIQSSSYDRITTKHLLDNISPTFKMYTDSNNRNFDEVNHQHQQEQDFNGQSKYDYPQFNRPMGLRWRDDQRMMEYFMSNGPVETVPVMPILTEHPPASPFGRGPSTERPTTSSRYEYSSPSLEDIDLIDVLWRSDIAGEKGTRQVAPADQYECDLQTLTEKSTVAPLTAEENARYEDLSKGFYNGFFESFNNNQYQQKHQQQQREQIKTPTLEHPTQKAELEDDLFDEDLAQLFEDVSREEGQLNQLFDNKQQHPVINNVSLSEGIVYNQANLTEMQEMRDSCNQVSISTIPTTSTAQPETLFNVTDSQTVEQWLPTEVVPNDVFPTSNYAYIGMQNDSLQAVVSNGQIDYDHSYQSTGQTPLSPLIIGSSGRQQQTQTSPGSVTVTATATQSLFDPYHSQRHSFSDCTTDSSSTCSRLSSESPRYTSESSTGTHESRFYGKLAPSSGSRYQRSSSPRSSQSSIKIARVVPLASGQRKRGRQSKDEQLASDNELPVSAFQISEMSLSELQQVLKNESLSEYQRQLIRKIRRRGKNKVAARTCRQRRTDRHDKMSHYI

[2] = toxicity to human hepatoma HepG2 cells – cell-based, cherry-picked samples, cytotoxicity control, dose response (AID 1159577); type: functional
[3] = growth inhibition of PfATP4-mutant resistant parasites – NITD609-resistant line, SYBR Green, dry powder, dose response (AID 1159571); type: functional, cell-based;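 also: parasites synchronized at ring stage by sorbitol before testing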
[4] = toxicity to human HepG2 hepatoma cells – cell-based, plate reader, dry powder samples, cytotoxicity control, dose response (AID 1159569); type: functional;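 also: inhibitor potency with signal falling toward the positive control level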
[5] = Dd2 malaria parasite growth inhibition potency – SYBR Green, dry powder samples, dose response (AID 1159566); type: functional, cell-based;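 also: potency for growth inhibition with lower SYBR green DNA signal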
[6] = growth inhibition of yeast DHODH-expressing 3D7 parasites – SYBR Green, dry powder samples, dose response (AID 1159570); type: functional, cell-based;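 also: parasite growth measured after 72 hours of compound exposure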
[7] = P. falciparum Dd2 growth inhibitors, dose response, SYBR Green, cherry-picked samples (AID 1159567); type: functional, cell-based
BJ [8] = assay: cells; type: functional, cell-based; details: Homo sapiens
BJ [9] = assay: BJ-TERT-LT-ST fibroblast viability loss – cell-based, RAS-independent, luminescence, dose response (AID 1935); type: functional; details: Homo sapiens;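 also: BJ fibroblasts immortalized with TERT plus LT and ST oncogenes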
BJ [10] = assay: BJ-TERT fibroblast viability loss – cell-based, RAS-independent, luminescence, dose response (AID 1933); type: functional; details: Homo sapiens
[11] = DRD fibroblast viability loss – cell-based, non-viral oncogenic, luminescence, dose response (AID 1934); type: functional; details: Homo sapiens
[12] = A549 cell cytotoxicity, dose response, cytotoxicity control, plate reader, cherry-pick, antagonist series (AID 743412); type: functional, cell-based
[13] = biological target: T3, Histone-lysine N-methyltransferase NSD2 (Homo sapiens, UniProt O96028); type: biochemical
T3 sequence (O96028 whole entry): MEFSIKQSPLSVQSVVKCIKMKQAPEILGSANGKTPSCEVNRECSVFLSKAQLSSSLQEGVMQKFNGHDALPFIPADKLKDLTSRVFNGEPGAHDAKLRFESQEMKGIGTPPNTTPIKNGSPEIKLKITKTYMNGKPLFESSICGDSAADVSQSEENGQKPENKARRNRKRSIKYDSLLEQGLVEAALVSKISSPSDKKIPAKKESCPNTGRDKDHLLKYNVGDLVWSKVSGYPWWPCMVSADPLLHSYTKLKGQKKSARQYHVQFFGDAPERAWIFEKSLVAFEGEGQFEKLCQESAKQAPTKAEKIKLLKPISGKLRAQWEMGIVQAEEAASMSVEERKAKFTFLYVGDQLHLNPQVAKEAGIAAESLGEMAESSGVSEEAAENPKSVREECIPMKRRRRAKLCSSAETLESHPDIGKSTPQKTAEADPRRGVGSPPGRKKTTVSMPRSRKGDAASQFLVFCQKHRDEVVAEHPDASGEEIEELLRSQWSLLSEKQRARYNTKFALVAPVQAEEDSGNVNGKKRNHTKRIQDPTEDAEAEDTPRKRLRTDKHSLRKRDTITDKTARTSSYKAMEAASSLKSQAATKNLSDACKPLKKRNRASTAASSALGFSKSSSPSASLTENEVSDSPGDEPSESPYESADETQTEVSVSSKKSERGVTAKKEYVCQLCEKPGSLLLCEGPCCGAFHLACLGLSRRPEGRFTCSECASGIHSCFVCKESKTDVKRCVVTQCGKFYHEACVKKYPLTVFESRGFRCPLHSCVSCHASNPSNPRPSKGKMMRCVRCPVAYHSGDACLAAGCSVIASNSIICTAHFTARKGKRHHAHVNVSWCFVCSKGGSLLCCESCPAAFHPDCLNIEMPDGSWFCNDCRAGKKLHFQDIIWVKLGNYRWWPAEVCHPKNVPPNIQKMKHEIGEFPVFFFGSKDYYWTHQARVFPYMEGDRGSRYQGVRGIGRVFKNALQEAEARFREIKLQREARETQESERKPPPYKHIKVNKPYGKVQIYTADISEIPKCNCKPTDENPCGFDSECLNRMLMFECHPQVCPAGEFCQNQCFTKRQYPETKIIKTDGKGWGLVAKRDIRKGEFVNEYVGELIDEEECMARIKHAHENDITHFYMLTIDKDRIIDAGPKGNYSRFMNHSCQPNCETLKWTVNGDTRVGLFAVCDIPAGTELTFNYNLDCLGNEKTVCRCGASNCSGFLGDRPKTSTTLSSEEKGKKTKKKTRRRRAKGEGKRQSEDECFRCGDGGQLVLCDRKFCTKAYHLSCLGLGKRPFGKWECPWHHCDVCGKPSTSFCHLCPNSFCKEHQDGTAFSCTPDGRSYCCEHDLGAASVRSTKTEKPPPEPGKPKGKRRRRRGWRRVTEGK

[14] = biological target: T4, Short transient receptor potential channel 4 (Mus musculus, UniProt Q9QUQ5); assay: block of DAMGO-driven TRPC4 calcium entry – cell-based, HEK293 TRPC4/mu-opioid, Fluo-4 calcium, dose response (AID 434942); type: functional;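 also: potency of inhibitors blocking the TRPC4 calcium response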
T4 sequence (Q9QUQ5 whole entry): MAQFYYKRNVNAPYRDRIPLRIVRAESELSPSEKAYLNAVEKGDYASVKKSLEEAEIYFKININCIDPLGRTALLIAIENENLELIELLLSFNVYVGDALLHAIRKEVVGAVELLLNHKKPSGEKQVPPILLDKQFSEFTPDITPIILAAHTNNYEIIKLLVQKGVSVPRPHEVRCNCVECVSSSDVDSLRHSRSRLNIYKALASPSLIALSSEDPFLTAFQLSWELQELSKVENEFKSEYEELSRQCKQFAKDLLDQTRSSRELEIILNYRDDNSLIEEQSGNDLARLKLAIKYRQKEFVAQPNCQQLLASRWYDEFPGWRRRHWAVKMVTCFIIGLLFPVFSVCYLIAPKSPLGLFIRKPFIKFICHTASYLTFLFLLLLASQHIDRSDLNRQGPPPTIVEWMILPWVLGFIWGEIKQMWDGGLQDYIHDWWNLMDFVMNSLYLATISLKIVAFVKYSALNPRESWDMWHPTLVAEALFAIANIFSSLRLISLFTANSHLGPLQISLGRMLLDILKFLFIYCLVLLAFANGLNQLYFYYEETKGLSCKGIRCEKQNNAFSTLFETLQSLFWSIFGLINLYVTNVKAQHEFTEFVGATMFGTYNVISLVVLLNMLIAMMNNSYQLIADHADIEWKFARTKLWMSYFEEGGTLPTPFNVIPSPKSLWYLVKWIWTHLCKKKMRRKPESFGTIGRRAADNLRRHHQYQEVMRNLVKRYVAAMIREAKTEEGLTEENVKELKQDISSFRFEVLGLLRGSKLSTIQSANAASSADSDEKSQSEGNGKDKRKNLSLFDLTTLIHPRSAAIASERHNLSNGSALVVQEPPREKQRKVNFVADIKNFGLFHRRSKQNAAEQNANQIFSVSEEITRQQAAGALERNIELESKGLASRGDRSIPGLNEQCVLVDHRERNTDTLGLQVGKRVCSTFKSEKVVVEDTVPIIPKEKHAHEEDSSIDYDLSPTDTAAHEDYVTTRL

Streptokinase A = biological target: T5, Streptokinase A (Streptococcus pyogenes serotype M1, UniProt P10520); assay: viability-normalized secreted streptokinase activity reduction – plasminogen activation absorbance, OD405, dose response (AID 1914); type: functional, Streptococcus pyogenes M1 GAS;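 also: secreted streptokinase activity via plasminogen activation per viability signal from cell pellet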
T5 sequence (P10520 whole entry): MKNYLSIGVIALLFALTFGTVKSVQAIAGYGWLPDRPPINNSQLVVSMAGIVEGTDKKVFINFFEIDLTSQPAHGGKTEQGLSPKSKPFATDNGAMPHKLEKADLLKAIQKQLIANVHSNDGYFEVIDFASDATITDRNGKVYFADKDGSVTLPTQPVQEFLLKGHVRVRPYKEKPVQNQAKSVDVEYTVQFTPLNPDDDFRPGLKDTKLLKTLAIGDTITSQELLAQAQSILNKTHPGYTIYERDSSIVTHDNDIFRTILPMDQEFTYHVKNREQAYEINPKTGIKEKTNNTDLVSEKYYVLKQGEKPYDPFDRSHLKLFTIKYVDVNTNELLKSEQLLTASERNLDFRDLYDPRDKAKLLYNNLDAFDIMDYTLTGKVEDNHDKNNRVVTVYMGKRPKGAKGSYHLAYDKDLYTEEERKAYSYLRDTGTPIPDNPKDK

cells [15] = type: functional, cell-based
cells [16] = type: functional, cell-based; remark: listed apart in the source
[17] = Trypanosoma cruzi growth suppression in host cells – NIH3T3 host cells, beta-gal luminescence, confirmation (AID 2044); type: functional, cell-based;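 also: intracellular parasites grown in NIH/3T3 mouse fibroblasts as host cells; luminescent beta-galactosidase reporter signal from transgenic T. cruzi replicating inside host cells; inhibitors lower the luminescence signal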
[18] = NIH3T3 cell viability loss – ATP luminescence, mouse fibroblasts, counter-screen, dose response (AID 2010); type: functional, cell-based;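 also: cells exposed to compound for about 90 hours before reading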

CCn1c(CSc2nnc(-c3ccncc3)n2C)nc2cc(C(=O)O)ccc21
AC50 [1]: > 100 µM (inactive)
IC50 (Protein skinhead-1): > 100 µM (inactive)

COc1ccccc1C#Cc1ccc([C@@H]2[C@@H](CO)N(C(=O)C3CCCCC3)[C@H]2C#N)cc1
AC50 [2]: > 39 µM (inactive)
AC50 [3]: 1.06 µM (active)
AC50 [4]: 16.4 µM (active)
AC50 [5]: 0.872 µM (active)
AC50 [6]: 1.35 µM (active)
AC50 [7]: 2.73 µM (active)

Cc1nc(N2CCCCC2)sc1C(=O)c1ccc(Cl)c([N+](=O)[O-])c1
EC50 (BJ [8]): > 150 µM (not active)
EC50 (BJ [9]): > 75 µM (inconclusive)
EC50 (BJ [10]): 9.77 µM (active)
EC50 [11]: 15.6 µM (active)

C[C@@H]1CN([C@@H](C)CO)C(=O)c2c(c3ccccc3n2C)-c2ccccc2CO[C@@H]1CN(C)Cc1ccc(Cl)c(Cl)c1
AC50 [2]: 22.3 µM (active)
AC50 [3]: 1.73 µM (active)
AC50 [4]: 22.3 µM (active)
AC50 [5]: 1.11 µM (active)
AC50 [6]: 2.24 µM (active)
AC50 [7]: 1.34 µM (active)

C[C@@H]1CN([C@@H](C)CO)S(=O)(=O)c2ccc(C3=CCCC3)cc2O[C@H]1CN(C)C(=O)c1ccccc1
AC50 [12]: 38.9 µM (active)

CN(C(=O)CSc1nc(-c2ccc(C(C)(C)C)cc2)c(C#N)c(=O)[nH]1)C1CCCCC1
AC50 [13]: 12.6 µM (active)
EC50 [14]: 9.44 µM (active)
EC50 (Streptokinase A): > 150 µM (not active)

CCN(CC)CCNC(=O)c1cc2cc(Br)ccc2s1
AC50 [13]: > 20 µM (inactive)

O=C(CSc1n[nH]c(-c2ccccc2)n1)NC(=O)NCc1ccco1
EC50 (cells [15]): > 29.9 µM (inactive)
IC50 (cells [16]): > 29.9 µM (inactive)

COc1cc(/C=N/NC(N)=S)ccc1OCc1ccc(C)cc1
EC50 [17]: 0.566 µM (active)
EC50 [18]: 8.5 µM (active)
AC50 [1]: 69.9 µM (active)

COc1ccccc1C#Cc1ccc2c(c1)[C@@H]1NCC[C@@H]1[C@H](CO)N2
AC50 [2]: > 39 µM (inactive)
AC50 [3]: 4.53 µM (active)
AC50 [4]: 37.3 µM (active)
AC50 [5]: 1.94 µM (active)
AC50 [6]: 3.15 µM (active)
AC50 [7]: 2.56 µM (active)

O=C(Nc1ccc(Cl)cc1)N[C@@H]1c2c(ccc3ccccc23)OC[C@@H]1CO
AC50 [1]: 85.5 µM (active)

COc1ccc(CN2CC3(C2)CN(C(=O)CN(C)C)[C@H](CO)c2[nH]c4cc(OC)ccc4c23)cc1
AC50 [2]: 35.4 µM (active)
AC50 [3]: 2.51 µM (active)
AC50 [4]: 13.6 µM (active)
AC50 [5]: 1.64 µM (active)
AC50 [6]: 1.6 µM (active)
AC50 [7]: 2.87 µM (active)

O=C(Cn1nnc(-c2ccc3c(c2)OCO3)n1)Nc1ccccc1C(=O)O
AC50 [1]: 32 µM (inactive)

C[C@H](CO)N1C[C@H](C)[C@@H](CN(C)S(=O)(=O)c2cccs2)Oc2ccc(NC(=O)Nc3ccc(C(F)(F)F)cc3)cc2C1=O
AC50 [1]: > 100 µM (inactive)
